Assay: Storage stability of IPBC in Dowanol TPM solution with cobalt dryer and azole stabilizer (HPLC)
Assay type: physicochemical
Details: 10% by weight IPBC, 5% Octasoligen-Cobalt 8, 5% stabilizer; for Amount of IPBC (start): HPLC at the beginning; for Amount of IPBC (2 weeks, 40° C.): stored at 40° C., HPLC after two weeks
Procedure: A solution was prepared in Dowanol TPM (tripropylene glycol methyl ether), containing 10% by weight of iodopropargyl butylcarbamate, 5% by weight of Octasoligen-Cobalt 8 (Borchers, Langenfeld, Germany) and 5% by weight of the azole compounds of the formula (I) specified as a stabilizer in Table 1. The mixture was stored at 40° C. The amount of IPBC was determined by means of HPLC at the beginning and after two weeks.

Row | Compound | Amount of IPBC (start) | Amount of IPBC (2 weeks, 40° C.)
1 | Nc1nnc[nH]1 [Example 3] | 9.7% | 9.5%
2 | Nc1nnc(N)[nH]1 [Example 4] | 9.7% | 9.7%
3 | Sc1nnc[nH]1 [Example 1] | 10.2% | 9.0%
4 | Oc1nnc(S)[nH]1 [Example 2] | 9.9% | 8.9%

Reference: US7943644B2, “Stabilization of iodine-containing biocides by means of special azole compounds” (LANXESS Deutschland GmbH, priority 2006, dated 2011)
